Reference: article PMC4727990 (Bioorganic & medicinal chemistry letters, 2015)
One block for each compound: values may come before it.

Columns and labels:
ASCT2 [1] = details: cited from earlier work
ASCT2 [2] = details: read-out: apparent affinity; inhibitor of ASCT2; cited from earlier work
ASCT2 [3] = molecular target: T1, ASCT2 (Rattus norvegicus, UniProt D3ZJ25); assay: ASCT2-mediated 3H-glutamine uptake in C6 cells; type: cell-based
T1 sequence (D3ZJ25 1-555): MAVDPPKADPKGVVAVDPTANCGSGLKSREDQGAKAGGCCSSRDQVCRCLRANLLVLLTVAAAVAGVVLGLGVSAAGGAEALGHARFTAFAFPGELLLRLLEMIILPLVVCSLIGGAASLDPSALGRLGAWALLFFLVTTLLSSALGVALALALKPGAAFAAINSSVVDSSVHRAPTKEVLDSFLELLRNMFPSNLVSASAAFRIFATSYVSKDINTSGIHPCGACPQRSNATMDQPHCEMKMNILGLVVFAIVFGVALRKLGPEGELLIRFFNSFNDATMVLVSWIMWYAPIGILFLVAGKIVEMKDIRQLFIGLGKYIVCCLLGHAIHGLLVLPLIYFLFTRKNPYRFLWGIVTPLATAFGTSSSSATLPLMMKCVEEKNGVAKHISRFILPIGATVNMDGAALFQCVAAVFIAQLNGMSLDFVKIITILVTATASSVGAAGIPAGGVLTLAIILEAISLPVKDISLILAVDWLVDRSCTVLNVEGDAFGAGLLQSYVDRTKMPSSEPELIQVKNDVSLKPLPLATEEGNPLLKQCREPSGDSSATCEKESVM

Compound: N[C@@H](CCC(=O)Nc1ccc([N+](=O)[O-])cc1)C(=O)O [Compound 1, L-γ-glutamyl-p-nitroanilide]
potency against ASCT2 (ASCT2 [1]): modest potency in the low millimolar range

Compound: N[C@@H](COC(=O)c1ccc(-c2ccccc2)cc1)C(=O)O [Compound 3, O-(4-phenylbenzoyl)-L-serine]
Ki (ASCT2 [2]): 30 µM

IC50 (ASCT2 [3]): 9 µM
Compound: Cc1cccc(COc2ccccc2CN(CC[C@H](N)C(=O)O)Cc2ccccc2OCc2cccc(C)c2)c1 [Compound 17]

Compound: N-(2-(morpholinomethyl)phenyl)-L-glutamine [Compound 2]
improvement of activity against ASCT2 compared to GPNA (ASCT2 [1]): three-fold improved activity
